Assay results from PubChem BioAssay (NCI).
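How tested: cells in 96-well plates exposed to compound for 48 hours at five concentrations. At the GI50, growth is halved. TGI: concentration producing complete growth inhibition.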

Columns and labels:
Test in all cases: NCI tumour cell line growth inhibition, 48 h
CAKI-1 renal = tested on: CAKI-1 renal
NCI-H226 lung = tested on: NCI-H226 lung
A549 NSCLC = tested on: A549 NSCLC
DU-145 prostate = tested on: DU-145 prostate
OVCAR-3 ovarian = tested on: OVCAR-3 ovarian
UO-31 renal = tested on: UO-31 renal
IGROV1 ovarian = tested on: IGROV1 ovarian
HCT-15 colon = tested on: HCT-15 colon
A498 renal = tested on: A498 renal
HCC-2998 colon = tested on: HCC-2998 colon

| Compound | TGI (CAKI-1 renal) [µM] | TGI (NCI-H226 lung) [µM] | TGI (A549 NSCLC) [µM] | TGI (DU-145 prostate) [µM] | TGI (OVCAR-3 ovarian) [µM] | TGI (UO-31 renal) [µM] | TGI (IGROV1 ovarian) [µM] | TGI (HCT-15 colon) [µM] | TGI (A498 renal) [µM] | TGI (HCC-2998 colon) [µM] | GI50 (NCI-H226 lung) [µM] | GI50 (DU-145 prostate) [µM] | GI50 (OVCAR-3 ovarian) [µM] | GI50 (UO-31 renal) [µM] | GI50 (CAKI-1 renal) [µM] | GI50 (A549 NSCLC) [µM] | GI50 (HCT-15 colon) [µM] | GI50 (HCC-2998 colon) [µM] |
| --- | --- | --- | --- | --- | --- | --- | --- | --- | --- | --- | --- | --- | --- | --- | --- | --- | --- | --- |
| CCCCC1=C(C(=O)N2CCOCC2)C2(OCCO2)C1=O | 78.1 | 20.5 | 87.7 | > 100 | 39.7 | 30.3 | 37 | 40.3 | 62.1 | – | – | – | – | – | – | – | – | – |
| COc1ccc(/C=c2\s/c(=C3/SC(=S)N(c4ccccc4)C3=O)n(-c3ccccc3)c2=O)cc1 | > 100 | – | > 100 | > 100 | > 100 | > 100 | 75.9 | > 100 | > 100 | > 100 | – | – | – | – | – | – | – | – |
| CCc1c(CNc2ccc(C(=O)NC(CC(=O)O)C(=O)O)cc2)ccc2nc(N)nc(N)c12 (stereo not drawn) | > 1000 | > 1000 | > 1000 | > 1000 | > 1000 | > 1000 | > 1000 | > 1000 | – | – | > 1000 | 0.148 | 52.8 | 0.212 | – | – | – | – |
| COc1ccccc1C1Nn2c(nc3ccccc3c2=O)N1c1ccc(C)cc1 (stereo not drawn) | 24.1 | 9.94 | 19.7 | 28.2 | 18.6 | 21.2 | 19.8 | 16.9 | – | 17.5 | – | – | – | – | – | – | – | – |
| O=S(=O)(O)c1ccc(N=Nc2ccc(N=Nc3ccc(/C=C/c4ccc(N=[N+]([O-])c5ccc(/C=C/c6ccc(N=Nc7ccc(N=Nc8ccc(S(=O)(=O)O)cc8)cc7)cc6S(=O)(=O)O)c(S(=O)(=O)O)c5)cc4S(=O)(=O)O)c(S(=O)(=O)O)c3)cc2)cc1 | – | > 100 | > 100 | – | > 100 | > 100 | > 100 | > 100 | > 100 | > 100 | – | – | – | – | – | – | – | – |
| Cc1cc(C)c2c(=O)cc(-c3cccc(F)c3)[nH]c2n1 | > 66.3 | 7.4 | > 100 | > 45.3 | 0.318 | > 100 | – | > 38.2 | > 26.9 | 3.94 | – | – | – | – | – | – | – | – |
| Cc1[nH]c(=O)nc(NCCNCCO)c1C(=O)Nc1cccc2cc3ccccc3cc12 | > 100 | > 100 | > 100 | > 100 | > 100 | – | > 100 | > 100 | > 100 | > 100 | – | – | – | – | – | – | – | – |
| CCOc1ccc(Nc2nc(N)nc(N)c2N)cc1 | 70.3 | > 100 | > 100 | > 100 | > 100 | 74.3 | 28.6 | > 100 | > 100 | – | – | – | – | – | – | – | – | – |
| Cc1cc2ncn(C3CCCCO3)c2cc1C (stereo not drawn) | > 100 | > 100 | > 100 | > 100 | > 100 | 75.1 | > 100 | > 100 | – | > 100 | – | – | – | – | – | – | – | – |
| c1ccc2c(c1)Sc1nccc3ccnc-2c13 | 41 | > 100 | – | > 100 | > 100 | 47.6 | > 100 | – | > 100 | > 100 | – | – | – | – | – | – | – | – |
| COc1ccc(Nc2nc(N)c(C(=O)c3c[nH]c4ccccc34)s2)cc1 | > 100 | 36.3 | > 61.3 | 10.2 | 4.14 | > 100 | > 100 | 8.91 | 16.3 | – | – | – | – | – | – | – | – | – |
| C=C1N(C=O)C(C)(C)N(O)C1(C)C | > 100 | > 100 | > 100 | > 100 | > 100 | > 100 | > 100 | > 100 | – | > 100 | – | – | – | – | – | – | – | – |
| Cc1cc(C)c(S(=O)(=O)N(CCCN)OCCCON(CCCN)S(=O)(=O)c2c(C)cc(C)cc2C)c(C)c1 | 29.3 | 7.66 | 3.3 | 3.15 | 4.26 | 30.4 | 3.86 | 34.8 | 10.7 | – | – | – | – | – | – | – | – | – |
| Cc1cc(C)nc(NS(=O)(=O)c2ccc(Nc3c4ccccc4nc4c(C(=O)N5CCN(CCOS(C)(=O)=O)CC5)cccc34)cc2)n1 | > 100 | > 100 | > 100 | – | > 100 | > 100 | > 100 | > 100 | > 100 | > 100 | – | – | – | – | – | – | – | – |
| C[C@]12CCC(=O)[C@@H](CCC3=CC(=O)C=CC3=O)[C@@H]1CCC2=O | 27.7 | 57.3 | > 54.5 | 40.8 | 36 | 31.1 | – | > 31.6 | 39.6 | 31.4 | – | – | – | – | – | – | – | – |
| N#C/C(=C/n1c(=S)[nH]c2ccc([N+](=O)[O-])cc21)C(N)=O | > 100 | > 100 | > 100 | > 100 | > 100 | > 100 | > 100 | > 100 | – | – | – | – | – | – | – | – | – | – |
| CSC(SC)=C(C(=O)O)P(=O)(O)O | > 100 | > 100 | > 100 | > 100 | > 100 | – | > 100 | > 100 | > 100 | > 100 | – | – | – | – | – | – | – | – |
| COc1cc(S(=O)(=O)Nc2ccc(C(=O)/C=C/c3ccc(O)cc3)cc2)ccc1F | > 100 | 76.2 | > 100 | > 100 | > 100 | – | – | > 100 | – | > 100 | 22.4 | > 100 | > 100 | – | > 100 | > 100 | > 100 | > 100 |
| COc1cc(C(c2c(O)c3ccccc3oc2=O)c2c(O)c3ccccc3oc2=O)cc(Br)c1O | 34.9 | 49.1 | 35.6 | 33.6 | 30.9 | 31 | 30 | 36.4 | 29.4 | – | – | – | – | – | – | – | – | – |
| COc1ccc2nc(/C(N)=C\C#N)ccc2c1 | > 100 | > 100 | > 100 | > 100 | > 100 | > 100 | > 100 | > 100 | – | – | – | – | – | – | – | – | – | – |
| COc1cccc2c1C(=O)c1c(O)c3c(c(O)c1C2=O)C[C@H](O)C[C@@H]3OC1CC(N)C(O)C(C)O1 (stereo partly drawn) | 4.83 | 2.81 | 14.1 | 11.6 | 7.34 | 19.7 | 12.4 | 58 | 4.5 | – | – | – | – | – | – | – | – | – |
